Holding throughout (settings): exposure time: 90 min
For experiment [1], the system named is 1083 (donor line of iPSC-derived cardiomyocytes). Briefly: POD (EC95) for loss of peak frequency (asystole) vs vehicle; higher = less potent (higher point of departure). On the procedure: (§1)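 Human iPSC-derived cardiomyocytes from 16 donors were exposed for 90 min at 37 °C to each PFAS at 0.1, 1, 10 and 100 µM in 0.5% DMSO, 384-well plates. Kinetic Ca2+ flux (FLIPR) and Hoechst nuclei counts were normalised to vehicle wells and fitted with a hierarchical Bayesian Hill model to give donor-specific PODs: EC05 for beat-rate increase or decrease and for decay-to-rise ratio increase (QT proxy), EC95 for peak-frequency loss (asystole), EC10 for total cell number loss. 0.03 µM is the lower bound.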

Experiment [2] has as its system 1118 (donor line of iPSC-derived cardiomyocytes). The description is as above. As to the method: as §1
The test system of experiment [3] is 11235 (donor line of iPSC-derived cardiomyocytes). The experiment is described as above. As to the method: as §1
Experiment [4] concerns 1309 (donor line of iPSC-derived cardiomyocytes). The experiment is described as above. On the procedure:
as §1

In experiment [5] the test system is 1368 (donor line of iPSC-derived cardiomyocytes). The experiment is described as above. As to the method:
as §1

The subject of experiment [6] is 1392 (donor line of iPSC-derived cardiomyocytes). The experiment is described as above. On the procedure:
as §1

Experiment [7] has as its system 1434 (donor line of iPSC-derived cardiomyocytes). Described as above. As to the method: as §1
Experiment [8] deals with 1516 (donor line of iPSC-derived cardiomyocytes). Described as above. As to the method: as §1
The test system of experiment [9] is 1518 (donor line of iPSC-derived cardiomyocytes). Described as above. On the procedure:
as §1

In experiment [10] the test system is 1531 (donor line of iPSC-derived cardiomyocytes). The description is as above. As to the method: as §1
Experiment [11] has as its system 1535 (donor line of iPSC-derived cardiomyocytes). Described as above. On the procedure:
as §1

Experiment [12] concerns 1565 (donor line of iPSC-derived cardiomyocytes). The description is as above. On the procedure: as §1
Experiment [13] has as its system 20032 (donor line of iPSC-derived cardiomyocytes). The experiment is described as above. On the procedure:
as §1

For experiment [14], the system named is 20084 (donor line of iPSC-derived cardiomyocytes). The experiment is described as above. As to the method:
as §1

Experiment [15] deals with 30145 (donor line of iPSC-derived cardiomyocytes). Described as above. As to the method:
as §1

The subject of experiment [16] is 30171 (donor line of iPSC-derived cardiomyocytes). Described as above. On the procedure: as §1
The subject of experiment [17] is 1518. Kind of experiment: POD (EC05) for increase in beat frequency (positive chronotrope) vs vehicle; higher = less potent (higher point of departure). A digest of the protocol: (§2)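 Human iPSC-derived cardiomyocytes from 16 donors were cultured 14 days in gelatin-coated 384-well plates and loaded 2 h with fluorescent Ca2+ dye. They were then exposed for 90 min at 37 °C to 0.1, 1, 10 and 100 µM (final, 0.5% DMSO). Ca2+ flux was recorded on a FLIPR Tetra (8 frames/s, 100 s) before and after exposure. Donor-specific points of departure came from hierarchical Bayesian Hill fits to vehicle-normalised beat frequency, decay-to-rise ratio or peak frequency. Thresholds were 5% change, or 95% loss for peak frequency.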

Experiment [18] relates to 1531. Described as above. The essentials:
as §2

For experiment [19], the system named is 1535. Described as above. A digest of the protocol: as §2
The test system of experiment [20] is 20084. Described as above. A digest of the protocol:
as §2

Some results are limits rather than exact numbers.

Turning to `O=C(O)C(F)(F)OC(F)(F)C(F)(F)OC(F)(F)C(F)(F)OC(F)(F)C(F)(F)C(F)(F)C(F)(F)F` [Perfluoro-3,6,9-trioxatridecanoic_acid], the POD vs vehicle in experiment [1] is 79.4 µM; in [2], 63.7 µM; in experiment [3], 92.2 µM; in [4], more than 100 µM; in [5] it was more than 100 µM; in [6], more than 100 µM. Moreover, the POD vs vehicle in experiment [7] is 89.3 µM; in [8], 84.8 µM; in experiment [9], more than 100 µM; in [10], 11.4 µM; in [11], more than 100 µM; in experiment [12], more than 100 µM. Also, the POD vs vehicle in [13] was more than 100 µM; in experiment [14] it was more than 100 µM; in experiment [15], more than 100 µM; in experiment [16], 73 µM; in experiment [17] it was more than 100 µM; in experiment [18], more than 100 µM. The POD vs vehicle in [19] and in experiment [20] was more than 100 µM throughout.
As to `O=C(O)C(F)(F)OC(F)(F)C(F)(F)OC(F)(F)F` [Perfluoro-3,6-dioxaheptanoic_acid], the POD vs vehicle in experiment [1], in experiment [2], in [3], in experiment [4], in experiment [5] and in [6] was more than 100 µM in each case. The POD vs vehicle in experiment [7], in [8], in experiment [9], in experiment [10], in experiment [11] and in [12] was more than 100 µM in each case. Further, the POD vs vehicle in experiment [13], in experiment [14], in experiment [15], in experiment [16], in experiment [17] and in [18] was more than 100 µM each time. Moreover, the POD vs vehicle in [19] and in [20] was more than 100 µM in each case.
On to `O=C(O)C(F)(F)OC(F)(F)C(F)(F)OC(F)(F)C(=O)O` [Perfluoro-3,6-dioxaoctane-1,8-dioic_acid], for which the POD vs vehicle in experiment [1], in experiment [2], in experiment [3], in [4], in experiment [5] and in experiment [6] was more than 100 µM in each case. In addition, the POD vs vehicle in [7], in experiment [8], in experiment [9], in experiment [10], in [11] and in experiment [12] was more than 100 µM throughout. Moreover, the POD vs vehicle in experiment [13] is more than 100 µM; in experiment [14], more than 100 µM; in experiment [15], more than 100 µM; in experiment [16], more than 100 µM; in [17] it was 28 µM; in [18] it was more than 100 µM. Besides, the POD vs vehicle in experiment [19] and in [20] was more than 100 µM in each case.
Turning to `O=C(O)C(F)(F)C(F)(F)OC(F)(F)F` [Perfluoro-3-methoxypropanoic_acid], the POD vs vehicle in experiment [1], in [2], in experiment [3], in experiment [4], in experiment [5] and in [6] was more than 100 µM each time. The POD vs vehicle in experiment [7], in experiment [8], in [9], in experiment [10], in experiment [11] and in experiment [12] was more than 100 µM each time. The POD vs vehicle in [13], in experiment [14], in experiment [15], in [16], in experiment [17] and in experiment [18] was more than 100 µM throughout. Besides, the POD vs vehicle in experiment [19] and in experiment [20] was more than 100 µM in each case.
`O=C(O)C(F)(F)C(F)(F)C(F)(F)OC(F)(C(F)(F)F)C(F)(F)F` [Perfluoro-4-isopropoxybutanoic_acid]: the POD vs vehicle in [1], in experiment [2], in [3], in [4], in [5] and in [6] was more than 100 µM throughout. In addition, the POD vs vehicle in experiment [7], in experiment [8], in experiment [9], in experiment [10], in experiment [11] and in experiment [12] was more than 100 µM throughout. For the same molecule, the POD vs vehicle in experiment [13], in experiment [14], in experiment [15], in experiment [16], in experiment [17] and in experiment [18] was more than 100 µM each time. Further, the POD vs vehicle in experiment [19] and in experiment [20] was more than 100 µM in each case.

Source of the values: the supplement of paper PMC11368000.
